Measured values reported in patent US20240309018A1, “THIAZOLE-LACTAM-SPIROHETEROCYCLIC COMPOUNDS AND APPLICATIONS THEREOF” (D3 BIO (WUXI) CO., LTD, priority 2021, published 2024).

What was measured:
[1] = Hygroscopicity study (DVS); format: physicochemical; details: 25° C. and 80% RH
Experimental: Dynamic vapor adsorption (DVS) curves were collected on DVS Intrinsic plus of Surface Measurement Systems (SMS) company. The relative humidity at 25° C. was corrected with the deliquescent points of LiCl, Mg(NO3)2 and KCl.
[…]

[2] = Solid stability test of the crystal form; format: physicochemical
Experimental: The sample was placed at the bottom of an HPLC vial to form a thin layer. The samples were placed in a chamber at a constant temperature and humidity of 60° C./75% RH conditions and in a 92.5% RH desiccator. The bottles were sealed with a sealing film. Some small holes were punched in the sealing film to ensure that the samples were fully in contact with the ambient air. The caps of the sample bottles placed at 60° C. under light and light-shielding conditions (samples under light-shielding conditions were wrapped in tin foil) were tighten.

Cc1cccc(CN2C(=O)c3nc(-c4nc(Nc5ccnn5C)ncc4C)sc3C23COC3)n1 [crystal form A of WX001]
hygroscopicity classification [1]: almost no hygroscopicity
ΔW, weight increase by moisture absorption ([1]; DVS): 0.1134%
Crystal form ([2]; 0 day): Crystal form A
Crystal form ([2]; 60° C., 5 days): Crystal form A
Crystal form ([2]; 60° C., 10 days): Crystal form A
Crystal form ([2]; 60° C./75% RH, 1 month): Crystal form A
Crystal form ([2]; 60° C./75% RH, 2 months): Crystal form A
Crystal form ([2]; 60° C./75% RH, 3 months): Crystal form A
Crystal form ([2]; 92.5% RH, 5 days): Crystal form A
Crystal form ([2]; 92.5% RH, 10 days): Crystal form A
Crystal form ([2]; Control group of light-shielding, taking points simultaneously with visible light + UV group): Crystal form A
Crystal form ([2]; Control group of light-shielding, taking points simultaneously with visible light group): Crystal form A
Crystal form ([2]; Visible light (ICH conditions), reaching illumination of 1.2E+06 Lux · hrs): Crystal form A
Crystal form ([2]; Visible light + UV (ICH conditions), reaching illumination of 200 W · hrs/m^2): Crystal form A
solid stability, conclusion ([2]; all conditions of Table 15): good stability
